According to patent US7056947B2, “Aza-peptide epoxides” (Georgia Tech Research Corp., priority 2002, dated 2006):

Key:
caspase-3 = target: T1, caspase-3 (Homo sapiens, UniProt P42574); assay: Caspase-3 progress curve assay; assay type: biochemical; details: substrate Z-DEVD-AFC; NI = no inhibition
T1 construct: made in house; host or cells: E. coli
T1 sequence (P42574 29-175 limits assumed): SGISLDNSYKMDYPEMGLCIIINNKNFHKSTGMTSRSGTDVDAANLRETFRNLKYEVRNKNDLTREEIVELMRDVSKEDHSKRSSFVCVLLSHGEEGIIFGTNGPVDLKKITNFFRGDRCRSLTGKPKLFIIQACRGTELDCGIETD
T1 sequence (P42574 176-277 limits assumed): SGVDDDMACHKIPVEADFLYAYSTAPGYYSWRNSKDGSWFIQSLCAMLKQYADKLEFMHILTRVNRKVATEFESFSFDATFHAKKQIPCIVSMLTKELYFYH
Method: Caspase-3, -6, and -8. Caspase-3, -6 and -8 were expressed in E. coli and purified according to methods previously described by Stennicke and Salvesen. Assays using the fluorogenic substrate Z-DEVD-AFC (λex=400 nm, λem=505 nm) were carried out on a Molecular Devices fMax fluorescence microplate reader. Inhibition rates and equilibria were determined by the progress curve method. The standard 100 μL reaction was started by adding enzyme to a mixture of substrate (final concentration of Z-DEVD-AFC 100 μM) and various amounts of inhibitor in buffer (50 mM Hepes, 100 mM NaCl, 0.1% (w/v) CHAPS, sucrose 10% (w/v), and 10 mM DTT, at pH 7.4). The caspases were pre-activated for 10 min at 37° C. in the presence of 10 mM DTT.

caspase-1 = target: T2, caspase-1 (Homo sapiens, UniProt P29466, D381E); assay: Caspase-1 progress curve assay; assay type: biochemical; details: D381E variant, substrate Ac-YVAD-AMC, 30° C.
T2 construct: His tag (N); made in house; host or cells: E. coli
T2 sequence (P29466 120-297 limits assumed): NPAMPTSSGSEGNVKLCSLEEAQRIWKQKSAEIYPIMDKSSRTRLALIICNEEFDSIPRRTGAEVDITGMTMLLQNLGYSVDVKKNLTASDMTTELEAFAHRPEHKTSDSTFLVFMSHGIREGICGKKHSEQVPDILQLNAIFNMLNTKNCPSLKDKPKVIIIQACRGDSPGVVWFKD
T2 sequence (P29466 317-404 D381E limits assumed): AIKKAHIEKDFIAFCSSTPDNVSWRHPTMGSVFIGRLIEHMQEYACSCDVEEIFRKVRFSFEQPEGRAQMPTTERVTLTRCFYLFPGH
Text: Caspase-1. The preparation of the autolytically stable caspase-1 variant used in these studies has been described previously. Briefly, the variant contains a mutation (D381E) which renders it resistant to autolytic inactivation, but has no detectable affect on enzyme activity as compared to the naturally occurring enzyme. The enzyme variant was expressed in E. coli, purified first by immobilized metal chromatography via the N-terminal N-His tag, treated with excess oxidized glutathione to stabilize the reactive thiolate, and then re-purified by size-exclusion chromatography.
Inhibition data was measured using the progress curve assay method. Serial dilutions of each compound were prepared using an initial 8-fold dilution of a DMSO stock into HGE (100 mM HEPES,20% glycerol v/v, 0.5 mM EDTA), followed by seven serial two-fold dilutions into HGE and 12.5% DMSO, thus maintaining constant DMSO through the dilution series. Ten μL of diluted stocks or of vehicle (HGE and 12.5% DMSO) were placed in triplicate onto a 96-well microtiter plate, allowing several compounds to be tested on each plate. The plate was covered to minimize evaporation, and the plate was pre-warmed to 30° C. for 20 minutes. Enzyme was diluted into 10.0 mL of assay buffer (HGE, 5 mM DTT, plus 15 μM Ac-YVAD-AMC, 2 nM approximate final enzyme concentration), and this activated reaction mixture was added to the plate at 90 μL/well. Progress of substrate hydrolysis was monitored for 900 s in a LabSystems (Needham, Mass.) Fluoroskan Ascent fluorescent plate-reader using 385 and 460 nm excitation and emission filters, respectively, and a photomultiplier gain setting of 10. Triplicate curves were averaged and fit by nonlinear regression to the equation for irreversible inactivation shown below.
[formula] where F0 was routinely fixed to zero, since fluorescence values were always adjusted to an origin of 0. The second order rate constant kon (M^−1s^−1) was obtained from the slopes by linear regression, and errors represent the standard deviation of the regression slope.

Row | k2 caspase-3 (caspase-3) [M⁻¹ s⁻¹] | k2 caspase-1 (caspase-1) [M⁻¹ s⁻¹] | Structure (SMILES)
1 | 1910 ± 370 |  | CCNC(=O)[C@H]1O[C@@H]1C(=O)N(CC(=O)O)NC(=O)[C@H](C)NC(=O)[C@@H](NC(=O)CCc1ccccc1)C(C)C [23f, (2S,3S)-2-(2-Ethylcarbamoyl)-3-(N^2-(3-phenylpropanoylvalylalanyl)-N^1-carboxymethylhydrazinocarbonyl)oxirane]
2 |  | 1630 ± 522 | CC(NC(=O)C(NC(=O)CCc1ccccc1)C(C)C)C(=O)NN(CC(=O)O)C(=O)[C@@H]1O[C@H]1C(=O)NCc1ccccc1 (stereo partly drawn) [23g (R,R), (2R,3R)-2-(2-Benzylcarbamoyl)-3-(N^2-(3-phenylpropanoylvalylalanyl)-N^1-carboxymethylhydrazinocarbonyl)oxirane]
3 | 1610 ± 5 | 65900 ± 9153 | CC(C)[C@H](NC(=O)CCc1ccccc1)C(=O)N[C@@H](C)C(=O)NN(CC(=O)O)C(=O)[C@H]1O[C@@H]1C(=O)NCc1ccccc1 [23g (S,S), (2S,3S)-2-(2-Benzylcarbamoyl)-3-(N^2-(3-phenylpropanoylvalylalanyl)-N^1-carboxymethylhydrazinocarbonyl)oxirane]
4 |  | 950 ± 51 | CC(C)[C@H](NC(=O)CCc1ccccc1)C(=O)N[C@@H](C)C(=O)NN(CC(=O)O)C(=O)[C@@H]1O[C@H]1C(=O)NCCc1ccccc1 [23h (R,R), (2R,3R)-2-(2-Phenethylcarbamoyl)-3-(N^2-(3-phenylpropanoylvalylalanyl)-N^1-carboxymethylhydrazinocarbonyl)oxirane]
5 |  | 400 ± 19 | CC(C)[C@H](NC(=O)CCc1ccccc1)C(=O)N[C@@H](C)C(=O)NN(CC(=O)O)C(=O)[C@@H]1O[C@H]1C(=O)NCC(O)c1ccccc1 (stereo partly drawn) [23i (R,R), (2R,3R)-2-(2-Hydroxy-2-phenylethylcarbamoyl)-3-(N^2-(3-phenylpropanoylvalylalanyl)-N^1-carboxymethylhydrazinocarbonyl)oxirane]
6 |  | 268 ± 75 | CC(NC(=O)[C@@H]1O[C@H]1C(=O)N(CC(=O)O)NC(=O)[C@H](C)NC(=O)[C@@H](NC(=O)CCc1ccccc1)C(C)C)C(=O)NCc1ccccc1 (stereo partly drawn) [23j (R,R), (2R,3R)-2-(1-Benzylcarbamoylethylcarbamoyl)-3-(N^2-(3-phenylpropanoylvalylalanyl)-N^1-carboxymethylhydrazinocarbonyl)oxirane]
7 |  | 330 | CC(C)[C@H](NC(=O)CCc1ccccc1)C(=O)N[C@@H](C)C(=O)NN(CC(=O)O)C(=O)[C@@H]1O[C@H]1C(=O)NC(Cc1ccccc1)C(N)=O (stereo partly drawn) [23l (R,R), (2R,3R)-2-(1-Amido-phenethylcarbamoyl)-3-(N^2-(3-phenylpropanoylvalylalanyl)-N^1-carboxymethylhydrazinocarbonyl)oxirane]
8 | 2550 ± 25 |  | CC(C)C[C@H](NC(=O)OCc1ccccc1)C(=O)N[C@@H](CCC(=O)O)C(=O)N[C@H](C(=O)NN(CC(=O)O)C(=O)[C@H]1O[C@@H]1C(=O)NCCc1ccccc1)[C@@H](C)O [26h, (2S,3S)-2-(2-Phenethylcarbamoyl)-3-(N^2-(N -benzyloxycarbonylleucylglutamylthreonyl)-N^1-carboxymethylhydrazinocarbonyl)oxirane]
9 | 1280 ± 77 |  | CC(C)C[C@H](NC(=O)OCc1ccccc1)C(=O)N[C@@H](CCC(=O)O)C(=O)N[C@H](C(=O)NN(CC(=O)O)C(=O)[C@H]1O[C@@H]1C(=O)NC(C)C(=O)NCc1ccccc1)[C@@H](C)O (stereo partly drawn) [26j, (2S,3S)-2-(1-Benzylcarbamoyl-ethylcarbamoyl)-3-(N^2-(N-benzyloxycarbonylleucylglutamylthreonyl)-N^1-carboxymethylhydrazinocarbonyl)oxirane]
10 | 3050 |  | CC[C@H](C)[C@H](NC(=O)OCc1ccccc1)C(=O)N[C@@H](CCC(=O)O)C(=O)N[C@H](C(=O)NN(CC(=O)O)C(=O)[C@H]1O[C@@H]1C(=O)NC(C)C(=O)NCc1ccccc1)[C@@H](C)O (stereo partly drawn) [27j, (2S,3S)-2-(1-Benzylcarbamoyl-ethylcarbamoyl)-3-(N^2-(N-benzyloxycarbonylisoleucylglutamylthreonyl)-N^1-carboxymethylhydrazinocarbonyl)oxirane]

The next lines start with the molecule.

Row | Structure (SMILES) | k2 caspase-3 (caspase-3) [M⁻¹ s⁻¹] | k2 caspase-1 (caspase-1) [M⁻¹ s⁻¹]
11 | CC(C)[C@H](NC(=O)OCc1ccccc1)C(=O)NN(CC(=O)O)C(=O)[C@@H]1O[C@H]1c1ccc(Cl)cc1 (relative stereo) [22b, trans-2-(N^2-(N-Benzyloxycarbonylvalyl)-N^1-carboxymethylhydrazinocarbonyl)-3-(4-chlorophenyl)oxirane] | 145 ± 18 | 
12 | CC(C)[C@H](NC(=O)CCc1ccccc1)C(=O)N[C@@H](C)C(=O)NN(CC(=O)O)C(=O)[C@@H]1O[C@H]1CCc1ccccc1 (relative stereo) [23a, trans-3-(N^2-(N-3-Phenylpropanoylvalylalanyl)-N^1-carboxylmethylhydrazinocarbonyl)-2-(2-phenylethyl)oxirane] |  | 300 ± 144
13 | CC(C)C(NC(=O)OCc1ccccc1)C(=O)NN(CC(=O)O)C(=O)C1OC1CCc1ccccc1 (stereo not drawn) [22a, Cbz-Val-AAsp-(trans)-EP-CH2CH2Ph] | 310 ± 5 | 
14 | CCOC(=O)C1OC1C(=O)N(CC(=O)O)NC(=O)C(NC(=O)OCc1ccccc1)C(C)C [22c, Cbz-Val-AAsp-(S,S)-EP-COOEt] | 3650 ± 570 | 
15 | CC(C)C(NC(=O)OCc1ccccc1)C(=O)NN(CC(=O)O)C(=O)C1OC1C(=O)O [22n, Cbz-Val-AAsp-(S,S)-EP-COOH] | 1110 ± 340 | 
16 | CCOC(=O)[C@@H]1O[C@H]1C(=O)N(CC(=O)O)NC(=O)[C@H](C)NC(=O)[C@@H](NC(=O)CCc1ccccc1)C(C)C [23c (R,R)] |  | 6290 ± 1524
17 | CCOC(=O)[C@H]1O[C@@H]1C(=O)N(CC(=O)O)NC(=O)[C@H](C)NC(=O)[C@@H](NC(=O)CCc1ccccc1)C(C)C [23c (S,S), (2S,3S)-3-(N^2-(3-Phenylpropanoylvalylalanyl)-N^1-carboxymethylhydrazinocarbonyl)oxirane-2-carboxylic Acid Ethyl Ester] | 1040 ± 80 | 32200 ± 14560
18 | CC(C)[C@H](NC(=O)CCc1ccccc1)C(=O)N[C@@H](C)C(=O)NN(CC(=O)O)C(=O)[C@@H]1O[C@H]1C(=O)OCc1ccccc1 [23d (R,R), (2R,3R)-3-(N^2-(3-Phenylpropanoylvalylalanyl)-N^1-carboxymethylhydrazinocarbonyl)oxirane-2-carboxylic Acid Benzyl Ester] |  | 1860 ± 302
19 | CC(C)[C@H](NC(=O)CCc1ccccc1)C(=O)N[C@@H](C)C(=O)NN(CC(=O)O)C(=O)[C@H]1O[C@@H]1C(=O)OCCc1ccccc1 [23e, (2S,3S)-3-(N^2-(3-Phenylpropanoylvalylalanyl)-N^1-carboxymethylhydrazinocarbonyl)oxirane-2-carboxylic Acid Phenethyl Ester] | 2110 ± 50 | 56640 ± 9322
